Data taken from ChEMBL document CHEMBL1128349 (J Med Chem, 1995).

Experiments:
[1] = target: Voltage-gated L-type calcium channel (Rattus norvegicus, UniProt P22002+Q02485+P27732); assay: Displacement of [3H]nitrendipine from rat brain L-type [Ca2+] channel; assay type: tissue-based
[2] = target: T1, Alpha-2A adrenergic receptor (Homo sapiens, UniProt P08913); assay: Ability to displace [3H]rauwolscine from cloned human Alpha-2A adrenergic receptor
T1 sequence (P08913 whole entry): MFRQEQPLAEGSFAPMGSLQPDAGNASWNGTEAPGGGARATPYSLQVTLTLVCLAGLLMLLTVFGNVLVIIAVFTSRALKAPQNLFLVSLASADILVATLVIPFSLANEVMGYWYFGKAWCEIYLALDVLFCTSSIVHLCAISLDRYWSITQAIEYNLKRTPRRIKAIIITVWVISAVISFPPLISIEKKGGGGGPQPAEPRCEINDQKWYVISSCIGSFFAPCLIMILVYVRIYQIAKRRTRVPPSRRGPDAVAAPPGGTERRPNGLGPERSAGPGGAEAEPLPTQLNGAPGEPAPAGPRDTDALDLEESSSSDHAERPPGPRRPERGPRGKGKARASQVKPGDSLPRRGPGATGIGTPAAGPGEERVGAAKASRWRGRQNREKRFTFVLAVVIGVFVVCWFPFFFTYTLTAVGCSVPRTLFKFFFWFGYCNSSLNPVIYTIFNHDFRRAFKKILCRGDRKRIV

[3] = target: T2, Alpha-1D adrenergic receptor (Homo sapiens, UniProt P25100); assay: Ability to displace [3H]prazosin from cloned human Alpha-1D adrenergic receptor
T2 sequence (P25100 whole entry): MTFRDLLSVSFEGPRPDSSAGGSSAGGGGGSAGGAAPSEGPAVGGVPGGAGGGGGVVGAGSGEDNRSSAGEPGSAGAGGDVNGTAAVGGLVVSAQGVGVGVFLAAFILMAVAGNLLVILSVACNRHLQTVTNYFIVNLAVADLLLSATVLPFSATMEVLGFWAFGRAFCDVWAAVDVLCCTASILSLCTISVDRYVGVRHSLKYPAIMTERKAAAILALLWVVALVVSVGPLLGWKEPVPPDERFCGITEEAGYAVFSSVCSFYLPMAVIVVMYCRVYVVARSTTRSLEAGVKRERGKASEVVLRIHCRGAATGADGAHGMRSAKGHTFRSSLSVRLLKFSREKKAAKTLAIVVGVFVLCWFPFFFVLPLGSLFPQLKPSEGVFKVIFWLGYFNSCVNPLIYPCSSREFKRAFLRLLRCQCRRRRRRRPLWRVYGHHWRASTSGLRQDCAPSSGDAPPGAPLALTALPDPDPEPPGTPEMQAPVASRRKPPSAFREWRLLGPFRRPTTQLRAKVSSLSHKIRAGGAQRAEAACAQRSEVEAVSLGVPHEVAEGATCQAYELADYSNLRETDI

[4] = target: T3, Alpha-2B adrenergic receptor (Homo sapiens, UniProt P18089)
T3 sequence (P18089 whole entry): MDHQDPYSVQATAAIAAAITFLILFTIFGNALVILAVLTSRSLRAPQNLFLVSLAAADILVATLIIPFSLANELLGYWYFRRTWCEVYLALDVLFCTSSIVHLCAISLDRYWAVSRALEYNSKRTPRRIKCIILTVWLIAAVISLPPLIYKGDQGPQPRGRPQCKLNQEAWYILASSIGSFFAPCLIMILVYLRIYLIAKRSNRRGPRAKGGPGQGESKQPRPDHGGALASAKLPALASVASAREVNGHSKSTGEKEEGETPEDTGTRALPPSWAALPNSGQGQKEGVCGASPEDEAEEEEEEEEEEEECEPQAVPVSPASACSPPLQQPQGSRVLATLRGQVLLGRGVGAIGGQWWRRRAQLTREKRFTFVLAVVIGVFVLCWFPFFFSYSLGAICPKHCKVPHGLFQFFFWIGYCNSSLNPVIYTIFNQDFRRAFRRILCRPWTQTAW

[5] = target: T4, Alpha-1B adrenergic receptor (Homo sapiens, UniProt P35368); assay: Ability to displace [3H]prazosin from cloned human Alpha-1B adrenergic receptor
T4 sequence (P35368 whole entry): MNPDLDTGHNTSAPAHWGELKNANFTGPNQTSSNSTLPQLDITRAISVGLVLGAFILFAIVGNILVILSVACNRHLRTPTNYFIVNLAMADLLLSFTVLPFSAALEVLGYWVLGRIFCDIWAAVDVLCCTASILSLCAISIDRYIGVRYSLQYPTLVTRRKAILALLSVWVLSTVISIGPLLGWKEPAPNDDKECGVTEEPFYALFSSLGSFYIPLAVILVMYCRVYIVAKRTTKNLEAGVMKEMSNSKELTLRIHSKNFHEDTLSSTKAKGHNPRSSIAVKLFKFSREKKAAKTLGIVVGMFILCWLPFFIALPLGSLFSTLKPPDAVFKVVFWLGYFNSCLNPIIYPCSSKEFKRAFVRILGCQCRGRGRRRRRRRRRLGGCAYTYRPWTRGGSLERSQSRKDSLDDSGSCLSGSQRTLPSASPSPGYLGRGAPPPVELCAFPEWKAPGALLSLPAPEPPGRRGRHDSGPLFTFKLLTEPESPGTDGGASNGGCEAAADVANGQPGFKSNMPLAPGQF

[6] = target: T5, Alpha-2C adrenergic receptor (Homo sapiens, UniProt P18825); assay: Ability to displace [3H]rauwolscine from cloned human Alpha-2C adrenergic receptor
T5 sequence (P18825 whole entry): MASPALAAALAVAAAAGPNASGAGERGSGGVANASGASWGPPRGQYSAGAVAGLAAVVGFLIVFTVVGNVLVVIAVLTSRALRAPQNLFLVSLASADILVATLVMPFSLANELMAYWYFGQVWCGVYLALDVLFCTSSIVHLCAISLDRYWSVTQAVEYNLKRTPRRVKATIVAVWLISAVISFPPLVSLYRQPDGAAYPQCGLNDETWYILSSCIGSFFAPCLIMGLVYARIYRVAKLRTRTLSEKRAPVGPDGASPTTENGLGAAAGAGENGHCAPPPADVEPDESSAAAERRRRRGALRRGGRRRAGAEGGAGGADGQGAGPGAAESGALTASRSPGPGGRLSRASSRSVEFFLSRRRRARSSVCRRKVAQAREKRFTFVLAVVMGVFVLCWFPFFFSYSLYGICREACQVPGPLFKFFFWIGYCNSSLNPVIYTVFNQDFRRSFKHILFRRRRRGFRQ

[7] = target: T6, Alpha-1A adrenergic receptor (Homo sapiens, UniProt P35348)
T6 sequence (P35348 whole entry): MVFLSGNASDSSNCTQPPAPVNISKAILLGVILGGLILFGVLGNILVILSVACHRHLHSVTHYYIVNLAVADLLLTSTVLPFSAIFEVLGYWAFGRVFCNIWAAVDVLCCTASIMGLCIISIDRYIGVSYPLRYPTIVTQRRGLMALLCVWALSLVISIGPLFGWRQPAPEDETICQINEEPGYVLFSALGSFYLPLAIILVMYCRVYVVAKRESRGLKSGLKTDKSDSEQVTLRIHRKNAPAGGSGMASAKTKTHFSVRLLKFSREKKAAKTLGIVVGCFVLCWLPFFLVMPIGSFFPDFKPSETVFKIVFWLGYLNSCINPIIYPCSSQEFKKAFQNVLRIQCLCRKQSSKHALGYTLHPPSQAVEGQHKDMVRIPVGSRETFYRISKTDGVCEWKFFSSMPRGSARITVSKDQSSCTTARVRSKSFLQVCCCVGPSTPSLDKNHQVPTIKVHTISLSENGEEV

SMILES | Ki [1] | Ki [2] | Ki [3] | Ki [4] | Ki [5] | Ki [6] | Ki [7]
CO/C(O)=C1\C(C)=NC(C)=C(C(=O)NCCCN2CCC(c3ccccc3)(c3ccccc3)CC2)[C@H]1c1ccc([N+](=O)[O-])cc1 | 670 nM | […] |  |  |  |  | 
CO/C(O)=C1\C(C)=NC(C)=C(C(=O)OCCCN2CCC(c3ccccc3)(c3ccccc3)CC2)C1c1ccc([N+](=O)[O-])cc1 (configuration not stated) | 250 nM | 800 nM | 210 nM | 570 nM | 50 nM | 300 nM | 0.32 nM
COc1cc2nc(N3CCN(C(=O)c4ccco4)CC3)nc(N)c2cc1OC [PRAZOSIN] | > 10000 nM |  |  |  |  |  | 
COc1cc2nc(N3CCN(C(=O)C4CCCO4)CC3)nc(N)c2cc1OC (configuration not stated) [TERAZOSIN] |  | 550 nM | 3.7 nM |  |  |  | 
